Patent US9051342B2 (priority 2004, dated 2015)

SMILES	melting point
COc1ccc2c(c1)-c1nn(-c3ccc(C(=O)O)cc3)cc1CC2 [Compound 145, 4-(8-Methoxy-4,5-dihydro-benzo[g]indazol-2-yl)-benzoic acid]	290 to 292 °C
O=C(O)c1ccc(-n2cc(-c3ccncc3)cn2)cc1 [Compound 116, 4-(4-Pyridin-4-yl-pyrazol-1-yl)-benzoic acid]	> 350 °C
N#Cc1cccc(-c2ccn(-c3ccc4c(c3)OCO4)n2)c1 [Compound 60, 3-(1-Benzo[1,3]dioxol-5-yl-1H-pyrazol-3-yl)-benzonitrile]	144 to 147 °C
O=C(O)c1cccc(-n2cc(-c3nc4ccccc4o3)cn2)c1 [Compound 121, 3-(4-Benzooxazol-2-yl-pyrazol-1-yl)-benzoic acid]	331 to 333 °C
O=C(O)c1cccc(-c2ccn(-c3ccc(F)cc3)n2)c1 [Compound 96, 3-[1-(4-Fluoro-phenyl)-1H-pyrazol-3-yl]-benzoic acid]	245 to 246 °C
O=C(O)c1cccc(-c2ncn(-c3ccc(-c4cc5ccccc5o4)cc3)n2)c1 [Compound 26, 3-[1-(4-Benzofuran-2-yl-phenyl)-1H-[1,2,4]triazol-3-yl]-benzoic acid]	293 to 295 °C
CC(C)c1ccc(-n2cnc(-c3cccc(C(=O)O)c3)c2)cc1	225 to 226 °C
COc1cccc(-n2cc(-c3cccc(C(=O)O)c3)cn2)c1 [Compound 174, 3-[1-(3-Methoxy-phenyl)-1H-pyrazol-4-yl]-benzoic acid]	156 to 157 °C
O=C(O)c1ccc(-n2cc(-c3cccc(OC(F)(F)F)c3)cn2)cc1 [Compound 208, 4-[4-(3-Trifluoromethoxy-phenyl)-pyrazol-1-yl]-benzoic acid]	225 to 227 °C
COc1ccc(-c2cn(-c3ccc(C(=O)O)cc3)nn2)cc1 [Compound 203, 4-[4-(4-Methoxy-phenyl)-[1,2,3]triazol-1-yl]-benzoic acid]	294 to 295 °C
O=C(O)c1cccc(-c2cnn(-c3ccc(Cl)cc3)c2)c1 [Compound 83, 3-[1-(4-Chloro-phenyl)-1H-pyrazol-4-yl]-benzoic acid]	205 to 206 °C
O=C(O)c1cccc(-n2cc3c(n2)Cc2ccccc2-3)c1 [Compound 146, 3-(8H-Indeno[2,1-c]pyrazol-2-yl)-benzoic acid]	246 to 248 °C
Cc1ccc(-n2cc(-c3cccc(C(=O)O)c3)cn2)cc1 [Compound 177, 3-(1-p-Tolyl-1H-pyrazol-4-yl)-benzoic acid]	229 to 231 °C
COc1ccccc1-n1ccc(-c2cccc(C(=O)O)c2)c1 [Compound 200, 3-[1-(2-Methoxy-phenyl)-1H-pyrrol-3-yl]-benzoic acid]	> 350 °C
O=C(O)c1cccc(-n2cc3c(n2)-c2ccccc2CC3)c1 [Compound 137, 3-(4,5-Dihydro-benzo[g]indazol-2-yl)-benzoic acid]	191 to 192 °C
O=C(O)c1cccc(-n2ccc(-c3ccc(N4CCOCC4)cc3)n2)c1 [Compound 82, 3-[3-(4-Morpholin-4-yl-phenyl)-pyrazol-1-yl]-benzoic acid]	230 to 235 °C
Cc1ccc(-c2cnn(-c3cccc(C(=O)O)c3)c2)cc1 [Compound 48, 3-(4-p-Tolyl-pyrazol-1-yl)-benzoic acid]	208 to 209 °C
Cc1ccc(-n2ccc(-c3cccc(C(=O)O)c3)c2)cc1 [Compound 156, 3-(1-p-Tolyl-1H-pyrrol-3-yl)-benzoic acid]	178 to 181 °C
Cc1ccc(-n2ccc(-c3cccc(C(=O)O)c3)n2)cc1 [Compound 166, 3-(1-p-Tolyl-1H-pyrazol-3-yl)-benzoic acid]	192 to 193 °C
O=C(O)c1cccc(-n2cc(-c3ccncn3)cn2)c1 [Compound 117, 3-(4-Pyrimidin-4-yl-pyrazol-1-yl)-benzoic acid]	297 to 299 °C
Cc1ccc(-c2ccn(-c3cccc(C(=O)O)c3)n2)cc1 [Compound 170, 3-(3-p-Tolyl-pyrazol-1-yl)-benzoic acid]	180 to 182 °C
O=C(O)c1cccc(-c2ccn(-c3ccc(Cl)cc3)c2)c1 [Compound 155, 3-[1-(4-Chloro-phenyl)-1H-pyrrol-3-yl]-benzoic acid]	211 to 213 °C
O=C(O)c1cccc(-n2cc(-c3cnccn3)cn2)c1 [Compound 119, 3-(4-Pyrazin-2-yl-pyrazol-1-yl)-benzoic acid]	310 to 311 °C
O=C(O)c1ccc(-n2cc(-c3ccc(C(F)(F)F)cc3)nn2)cc1 [Compound 202, 4-[4-(4-Trifluoromethyl-phenyl)-[1,2,3]triazol-1-yl]-benzoic acid]	305 to 306 °C

The next lines start with the values.

melting point	SMILES
239 to 241 °C	COc1ccc2c(c1)-c1cn(-c3cccc(C(=O)O)c3)nc1CC2 [Compound 253, 3-(8-Methoxy-4,5-dihydro-benzo[e]indazol-2-yl)-benzoic acid]
238 to 240 °C	O=C(O)c1ccc(-c2cnn(-c3ccc4c(c3)OCCO4)c2)cc1 [Compound 226, 4-[1-(2,3-Dihydro-benzo[1,4]dioxin-6-yl)-1H-pyrazol-4-yl]-benzoic acid]
294 to 295 °C (dec.)	N#Cc1cccc(-c2nn(-c3ccc(C(=O)O)cc3)c(=O)o2)c1 [Compound 280, 4-[5-(3-cyanophenyl)-2-oxo-1,3,4-oxadiazol-3(2H)-yl]benzoic acid]
263 to 267 °C	CC(C)c1ccc(-n2nc(-c3ccc(C(=O)O)cc3)oc2=O)cc1 [Compound 276, 4-[4-(4-Isopropyl-phenyl)-5-oxo-4,5-dihydro-[1,3,4]oxadiazol-2-yl]-benzoic acid]
215 to 218 °C	CC(C)c1ccc(-n2cc(-c3ccc(C(=O)O)cc3)cn2)cc1 [Compound 229, 4-[1-(4-Isopropyl-phenyl)-1H-pyrazol-4-yl]-benzoic acid]
327 to 328 °C	O=C(O)c1ccc(-n2cc(-c3cccc(F)c3)nn2)cc1 [Compound 265, 4-[4-(3-Fluoro-phenyl)-[1,2,3]triazol-1-yl]-benzoic acid]
193 to 194 °C	O=C(O)c1cccc(-c2ccn(-c3cc(F)ccc3F)c2)c1 [Compound 242, 3-[1-(2,5-Difluoro-phenyl)-1H-pyrrol-3-yl]-benzoic acid]
198 to 199 °C	O=C(O)c1cccc(-c2ccn(-c3cccs3)n2)c1 [Compound 258, 3-(1-Thiophen-2-yl-1H-pyrazol-3-yl)-benzoic acid]
244 to 245 °C	COc1ccc(-c2cn(-c3ccc(C(=O)O)cc3)nn2)c(C)c1 [Compound 274, 4-[4-(4-Methoxy-2-methyl-phenyl)-[1,2,3]triazol-1-yl]-benzoic acid]
176 to 179 °C	CC(C)c1ccc(-c2nn(-c3ccc(C(=O)O)cc3)c(=S)s2)cc1 [Compound 282, 4-[5-(4-Isopropyl-phenyl)-2-thioxo-[1,3,4]thiadiazol-3-yl]-benzoic acid]
268 to 270 °C	COc1ccc(-c2ccn(-c3ccc(C(=O)O)cc3)n2)cc1 [Compound 219, 4-[3-(4-Methoxy-phenyl)-pyrazol-1-yl]-benzoic acid]
278 to 279 °C	CC(=O)c1ccc(-n2ccc(-c3ccc(C(=O)O)cc3)n2)cc1 [Compound 256, 4-[1-(4-Acetyl-phenyl)-1H-pyrazol-3-yl]-benzoic acid]
